# Results reported in ChEMBL document CHEMBL2010674, “Structure based design of iminohydantoin BACE1 inhibitors: identification of an orally available, centrally active BACE1 inhibitor” (Bioorg Med Chem Lett, 2012).
# pIC50, pKi: −log10 of the molar value.
# How the values were obtained:
# Beta-secretase 1 [1] = biological target: T1, Beta-secretase 1 (Homo sapiens, UniProt P56817)
# Beta-secretase 1 [2] = biological target: T1, Beta-secretase 1; remark: listed apart in the source
# Description: Inhibition of BACE1 in HEK293 cells expressing APP swedish and london mutant assessed as decrease of amyloid-beta40 level after 4 hrs by electrochemiluminescence-based sandwich ELISA
# Beta-secretase 2 = biological target: T2, Beta-secretase 2 (Homo sapiens, UniProt Q9Y5Z0)
# T2 sequence (Q9Y5Z0 whole entry): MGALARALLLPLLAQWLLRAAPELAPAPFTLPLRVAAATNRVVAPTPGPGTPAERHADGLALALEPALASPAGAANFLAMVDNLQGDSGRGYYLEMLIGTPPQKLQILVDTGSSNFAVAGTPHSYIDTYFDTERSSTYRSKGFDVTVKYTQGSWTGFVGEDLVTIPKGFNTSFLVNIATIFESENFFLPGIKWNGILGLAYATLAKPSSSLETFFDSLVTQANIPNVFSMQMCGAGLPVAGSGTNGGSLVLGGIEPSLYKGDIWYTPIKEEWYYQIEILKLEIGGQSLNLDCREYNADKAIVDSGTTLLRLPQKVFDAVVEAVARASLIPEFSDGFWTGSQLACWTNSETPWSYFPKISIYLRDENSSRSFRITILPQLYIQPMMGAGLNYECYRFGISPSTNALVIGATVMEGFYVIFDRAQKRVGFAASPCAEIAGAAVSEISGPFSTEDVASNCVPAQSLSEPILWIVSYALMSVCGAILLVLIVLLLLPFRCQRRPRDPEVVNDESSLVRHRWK
# [3] = AUC (0 to 6 hrs) in rat at 10 mg/kg, po; assay type: ADME, organism-based; set-up: time < 6 hr, dose 10 mg/kg, route oral; conditions: plasma
# [4] = Ratio of drug level in brain to plasma in rat at 10 mg/kg, po; assay type: ADME, organism-based; set-up: dose 10 mg/kg, route oral; conditions: read-out: BPR
# Rattus norvegicus [5] = test: Antialzheimer activity in Sprague-Dawley rat assessed as reduction in amyloid beta40 level in plasma at 30 mg/kg, po after 3 hrs relative to vehicle treated control; assay type: functional; set-up: scale not given: the % may be the effect or the level left
# [6] = Ratio of drug level in brain to plasma in Sprague-Dawley rat at 30 mg/kg, po; assay type: ADME, organism-based; set-up: dose 30 mg/kg, route oral; conditions: read-out: BPR
# Rattus norvegicus [7] = test: Antialzheimer activity in Sprague-Dawley rat assessed as reduction in amyloid beta40 level in CSF at 30 mg/kg, po after 3 hrs relative to vehicle treated control; assay type: functional; set-up: scale not given: the % may be the effect or the level left
# Plasma = test: Plasma concentration in Sprague-Dawley rat at 30 mg/kg, po; assay type: ADME, organism-based; set-up: dose 30 mg/kg, route oral; conditions: in vivo
# T1 sequence (P56817 whole entry): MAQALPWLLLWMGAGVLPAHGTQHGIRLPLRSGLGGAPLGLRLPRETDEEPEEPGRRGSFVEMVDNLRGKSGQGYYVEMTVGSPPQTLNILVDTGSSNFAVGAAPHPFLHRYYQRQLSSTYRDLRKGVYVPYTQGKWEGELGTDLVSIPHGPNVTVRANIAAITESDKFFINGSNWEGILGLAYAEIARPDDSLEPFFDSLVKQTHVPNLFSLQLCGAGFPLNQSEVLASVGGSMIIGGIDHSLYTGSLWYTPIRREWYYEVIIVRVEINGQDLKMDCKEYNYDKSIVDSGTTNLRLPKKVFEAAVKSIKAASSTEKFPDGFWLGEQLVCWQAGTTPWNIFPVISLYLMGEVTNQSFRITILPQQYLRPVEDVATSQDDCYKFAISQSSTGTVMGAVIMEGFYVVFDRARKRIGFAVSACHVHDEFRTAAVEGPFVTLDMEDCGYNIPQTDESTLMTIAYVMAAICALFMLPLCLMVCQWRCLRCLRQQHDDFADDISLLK
Compound,pKi (Beta-secretase 1 [1]),pIC50 (Beta-secretase 1 [2]),also measured
CN1C(=N)NC(c2cccnc2)(c2cccc(-c3cccc(Cl)c3)c2)C1=O (configuration not stated),6.77,5.36,–
CN1C(=N)NC(c2ccccc2)(c2cccc(-c3cncc(Cl)c3)c2)C1=O (racemic),7.05,–,–
CN1C(=N)NC(c2ccccc2)(c2cccc(F)c2)C1=O (racemic),6.14,–,–
CN1C(=N)NC(c2cccc(-c3cccc(C#N)c3)c2)(C2CC2)C1=O (configuration not stated),6.89,6.03,pKi (Beta-secretase 2): 7.52
CN1C(=N)NC(C)(c2cccc(-c3cccc(Cl)c3)c2)C1=O (configuration not stated),6.14,5.32,–
CN1C(=N)N[C@@](c2cccc(-c3cncc(Cl)c3)c2)(C2CC2)C1=O,–,–,AUC(0-t) at 6 h [3]: 3.1 µM·h
CN1C(=N)NC(c2cccc(-c3cncc(C#N)c3)c2)(C2CC2)C1=O (configuration not stated),6.57,6.21,pKi (Beta-secretase 2): 6.77
CN1C(=N)NC(c2cccc(-c3cccc(Cl)c3)c2)(c2ccccn2)C1=O (configuration not stated),6.07,5.23,–
CN1C(=N)NC(c2ccccc2)(c2cccc(-c3cnccn3)c2)C1=O (racemic),6.51,–,–
CN1C(=N)NC(c2ccncc2)(c2cccc(-c3cccc(Cl)c3)c2)C1=O (configuration not stated),< 5.00,–,–
CN1C(=O)C(c2ccccc2)(c2cccc(Cl)c2)N=C1N (racemic),6.52,–,–
CC(C)C1(c2cccc(-c3cccc(Cl)c3)c2)NC(=N)N(C)C1=O (configuration not stated),6.49,5.34,–
Cc1cncc(-c2cccc(C3(C4CC4)NC(=N)N(C)C3=O)c2)c1 (configuration not stated),6.60,6.19,pKi (Beta-secretase 2): 7.17
CN1C(=N)NC(c2cccc(-c3cccc(Cl)c3)c2)(C2CC2)C1=O (configuration not stated),7.33,5.72,–
CCC1(c2cccc(-c3cccc(Cl)c3)c2)NC(=N)N(C)C1=O (configuration not stated),6.35,5.28,–
CN1C(=N)NC(c2cncnc2)(c2cccc(-c3cccc(Cl)c3)c2)C1=O (configuration not stated),6.08,4.68,–
Cc1cccc(C2(c3ccccc3)N=C(N)N(C)C2=O)c1 (racemic),6.26,–,–

Compound,pKi (Beta-secretase 1 [1]),pIC50 (Beta-secretase 1 [2]),also measured
COc1ccc(-c2cccc(C3(c4ccccc4)NC(=N)N(C)C3=O)c2)cc1 (racemic),5.42,–,–
Cc1cncc(-c2cccc(C3(c4ccccc4)NC(=N)N(C)C3=O)c2)c1 (racemic),6.37,–,–
CN1C(=N)NC(c2cccc(-c3cccnc3)c2)(C2CC2)C1=O (configuration not stated),6.57,6.06,pKi (Beta-secretase 2): 6.44
CN1C(=O)C(c2ccccc2)(c2cccc(C#N)c2)N=C1N (racemic),6.43,–,–
CN1C(=N)NC(c2cccc(-c3cccc(Cl)c3)c2)(C2CCCC2)C1=O (configuration not stated),6.33,5.16,–
CN1C(=N)NC(c2cccc(-c3cncc(F)c3)c2)(C2CC2)C1=O (configuration not stated),6.80,6.10,pKi (Beta-secretase 2): 6.86
CN1C(=N)NC(c2ccccc2)(c2cccc(-c3cncc(F)c3)c2)C1=O (racemic),6.54,–,–
CC#Cc1cncc(-c2cccc([C@@]3(C4CC4)NC(=N)N(C)C3=O)c2)c1,8.27,7.09,AUC(0-t) at 6 h [3]: 17.9 µM·h; Kp [4]: 0.3; Activity (Rattus norvegicus [5]): 85%; Kp [6]: 0.2; Activity (Rattus norvegicus [7]): 54%; concentration (Plasma): 4.2 µM
CN1C(=N)NC(c2ccccc2)(c2cccc(-c3ccccc3)c2)C1=O (racemic),5.48,–,–
CN1C(=N)NC(c2cccc(-c3cc(Cl)cc(Cl)c3)c2)(C2CC2)C1=O (configuration not stated),7.52,5.62,–
CCOc1cccc(-c2cccc(C3(c4ccccc4)N=C(N)N(C)C3=O)c2)c1 (racemic),6.34,–,–
CN1C(=O)C(c2ccccc2)(c2cccc(-c3ccncc3)c2)N=C1N (racemic),5.42,–,–
CN1C(=N)NC(c2ccccc2)(c2cccc(-c3cncc(C#N)c3)c2)C1=O (racemic),6.33,–,–
COc1cncc(-c2cccc(C3(C4CC4)NC(=N)N(C)C3=O)c2)c1 (configuration not stated),7.00,6.41,pKi (Beta-secretase 2): 7.96
COc1cccc(-c2cccc(C3(C4CC4)NC(=N)N(C)C3=O)c2)c1 (configuration not stated),–,–,pKi (Beta-secretase 2): 8.11
CN1C(=N)NC(c2cccc(-c3cccc(Cl)c3)c2)(C2CCC2)C1=O (configuration not stated),6.96,5.55,–
